Laboratory results published in paper PMC2680961, “Homologous desensitization of signalling by the alpha (α) isoform of the human thromboxane A2 receptor: A specific role for nitric oxide signalling” (Biochimica et Biophysica Acta, 2007).
Numbering of substitutions follows the chain as printed. Counter-ions that a name gives are not always drawn. Each block holds one compound with its values, some of them ahead of it.

Experiments:
Type in all cases: cell-based
TPα [1] = molecular target: T1, TPα (Homo sapiens, UniProt P21731); experiment: Intracellular calcium mobilization, HEK.TPα cells; conditions: for secondary U46619 [Ca2+]i response relative to primary response: TPα
T1 construct: expressed in transfected cells
T1 sequence (P21731 1-343): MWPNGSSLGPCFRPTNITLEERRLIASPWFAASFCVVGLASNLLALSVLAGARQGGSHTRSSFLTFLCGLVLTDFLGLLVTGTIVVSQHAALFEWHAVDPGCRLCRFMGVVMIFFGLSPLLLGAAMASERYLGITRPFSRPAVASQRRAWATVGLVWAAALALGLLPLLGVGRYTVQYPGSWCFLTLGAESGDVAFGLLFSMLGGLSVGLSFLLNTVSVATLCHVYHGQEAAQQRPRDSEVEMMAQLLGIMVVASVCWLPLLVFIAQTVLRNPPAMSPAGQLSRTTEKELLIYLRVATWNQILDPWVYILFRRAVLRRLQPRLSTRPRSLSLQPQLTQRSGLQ
Experimental: (§1) Measurement of intracellular calcium mobilization ([Ca^2+]i) in FURA2/AM preloaded HEK 293 cell lines (2 × 10^6 cells/dish), each transiently co-transfected with pADVA (10 μg), and pCMV:Gαq (25 μg), was carried out as previously described. To investigate the effect of GRK2/βARK1 on TP-mediated [Ca^2+]i mobilization, HEK.TPα or HEK.TPβ cells (2 × 10^6 cells/dish) were co-transfected with pADVA (10 μg), pCMV:Gαq (25 μg) along with pRK5:βARK1^495–689 (25 μg), encoding a dominant negative form of GRK2/βARK1[39]. Approximately 48 h post-transfection, cells were harvested by scraping, washed twice in ice-cold PBS and resuspended in HBSSHB (modified Ca^2+/Mg^2+-free Hank's buffered salt solution, containing […], pH 7.67, 0.1% bovine serum albumin (BSA)) buffer at 10^7 cells/ml and incubated in the dark with 5 μM FURA2/AM for 45 min at 37 °C. Cells were collected by centrifugation (900×g, 5 min), washed once in an equal volume of HBSSHB, and were finally resuspended in HBSSHB buffer at 10^7 cells/ml and kept at room temperature in the dark for 40 min. For each measurement of [Ca^2+]i mobilization, aliquots of cells were diluted to 0.825 × 10^6 cells/ml in HBSSHB, 1 mM CaCl2 and FURA2 fluorescence was recorded (2 ml aliquots of cells) at 37^ °C with gentle stirring with a Perkin Elmer-Cetus LS50-B spectrofluorometer at excitation wavelengths of 340 nm and 380 nm and emission wavelength of 510 nm, respectively.
[…] To assess agonist-mediated homologous desensitization, cells (0.825 × 10^6 cells/ml; 2 ml per assay) were stimulated with 1 μM U46619 (Primary stimulation) or, as a control, with the vehicle for 4 min; thereafter, cells were collected by centrifugation (900×g, 5 min); were washed twice in 2 ml HBSSHB, 1 mM CaCl2; and finally resuspended in 2 ml HBSSHB,1 mM CaCl2 and were left to recover over various time intervals (ranging from 0 to 60 min); thereafter, cells re-stimulated with 1 μM U46619 (Secondary stimulation) and changes in [Ca^2+]i mobilization were monitored as a function of time. To assess the role of protein kinase (PK) A, PKC or PKG on U46619-mediated desensitization of TPα signalling, cells were pre-incubated with the PKA inhibitor H-89 (10 μM), the PKC inhibitor GF 109203X (50 nM) or the PKG inhibitor KT 5823 (50 nM), for 15 min and respective kinase inhibitors were maintained throughout the primary/secondary U46619-stimulations and during the washes.
(§2) The vehicle had no effect on U46619-mediated [Ca^2+]i mobilization. Calibration of the signal was performed in each sample by adding 0.2% Triton X-100 to obtain the maximal fluorescence ratio (Rmax) and then 1 mM EGTA to obtain the minimal fluorescence ratio (Rmin). The ratio of the fluorescence at 340 nm to that at 380 nm is a measure of [Ca^2+]i, which assumes a Kd of 225 nM Ca^2+ for FURA2/AM. The results presented in the figures are representative data from at least three or four independent experiments and are plotted as changes in Ca^2+i mobilized (Δ[Ca^2+]i (nM)) as a function of time (s) upon ligand stimulation. Changes in [Ca^2+]i mobilization were determined by measuring peak rises in [Ca^2+]i mobilized (Δ[Ca^2+]i) and were calculated as mean changes in Δ[Ca^2+]i ± S.E.M. (nM).

TP^Δ328 = molecular target: T2, TP^Δ328 (Homo sapiens, UniProt P21731); experiment: Intracellular calcium mobilization, HEK.TP^Δ328 cells; conditions: HEK.TP^Δ328
T2 construct: expressed in transfected cells
T2 sequence (P21731 1-328): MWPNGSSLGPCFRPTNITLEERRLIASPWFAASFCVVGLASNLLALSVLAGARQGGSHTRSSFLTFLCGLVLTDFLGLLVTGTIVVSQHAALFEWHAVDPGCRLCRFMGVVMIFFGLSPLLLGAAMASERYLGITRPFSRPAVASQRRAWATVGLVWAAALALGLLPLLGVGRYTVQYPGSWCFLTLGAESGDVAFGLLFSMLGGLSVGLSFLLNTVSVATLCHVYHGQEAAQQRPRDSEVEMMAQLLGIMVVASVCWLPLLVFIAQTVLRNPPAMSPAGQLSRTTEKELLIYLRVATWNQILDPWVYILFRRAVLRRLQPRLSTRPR
Experimental: as §1
(§3) Cells were stimulated with the TP agonist U46619 (1 μM) and changes in [Ca^2+]i mobilization were monitored as a function of time. To assess agonist-mediated homologous desensitization, cells (0.825 × 10^6 cells/ml; 2 ml per assay) were stimulated with 1 μM U46619 (Primary stimulation) or, as a control, with the vehicle for 4 min; thereafter, cells were collected by centrifugation (900×g, 5 min); were washed twice in 2 ml HBSSHB, 1 mM CaCl2; and finally resuspended in 2 ml HBSSHB,1 mM CaCl2 and were left to recover over various time intervals (ranging from 0 to 60 min); thereafter, cells re-stimulated with 1 μM U46619 (Secondary stimulation) and changes in [Ca^2+]i mobilization were monitored as a function of time. To assess the role of protein kinase (PK) A, PKC or PKG on U46619-mediated desensitization of TPα signalling, cells were pre-incubated with the PKA inhibitor H-89 (10 μM), the PKC inhibitor GF 109203X (50 nM) or the PKG inhibitor KT 5823 (50 nM), for 15 min and respective kinase inhibitors were maintained throughout the primary/secondary U46619-stimulations and during the washes.
as §2

TPα [2] = molecular target: T1, TPα; experiment: Agonist-mediated TP phosphorylation in whole cells, HEK.TPα
Experimental: (§4) Agonist-mediated TP phosphorylation in whole cells (1.8–2 × 10^6 cells/10 cm dish) was performed essentially as previously described. Briefly, cells were transiently co-transfected with pADVA (10 μg), pCMV:Gαq (25 μg) plus pcDNA:βArrestin2 (25 μg) approximately 48 h prior to labelling. Thereafter, cells were washed once in phosphate-free DMEM, 10% dialysed FBS and were metabolically labelled for 60 min in the same medium (2 ml/10 cm dish) containing 100 μCi/ml [^32P] orthophosphate (8000–9000 Ci/mmol) at 37 °C, 5% CO2. Where appropriate, the PKG kinase inhibitor KT 5823 (50 nM) or its vehicle was added during the labelling period. Thereafter, U46619 (1 μM) or an equivalent volume of vehicle (0.01% ethanol in HBS; 20 μl) were added and cells were incubated for 10 min at 37 °C, 5% CO2. Reactions were terminated by transferring the dishes to ice and aspirating the labelled medium and HA-epitope tagged TP receptors were processed and immunoprecipitated using the anti-HA 101R antibody as previously described. Electroblots were then exposed to Xomat XAR (Kodak) film to detect ^32P-labelled proteins. Thereafter, blots were subject to phosphorimage analysis, and the intensities of agonist-induced phosphorylation were expressed in arbitrary units relative to basal (vehicle-stimulated) levels. In parallel experiments, cells were incubated under identical conditions in the absence of [^32P] orthophosphate; HA-tagged TP receptors were immunoprecipitated from the same cell lines using the anti-HA 101R antibody and immunoblots were screened using the anti-HA 3F10 horseradish peroxidase-conjugated antibody.

TPα^S331A = molecular target: T3, TPα^S331A (Homo sapiens, UniProt P21731, S331A); experiment: Agonist-mediated TP phosphorylation in whole cells, HEK.TPα^S331A
T3 construct: expressed in transfected cells
T3 sequence (P21731 1-343 S331A): T1 sequence (P21731 1-343) with S331A
Experimental: as §4

TPβ [3] = molecular target: T4, TPβ (Homo sapiens, UniProt P21731); experiment: Intracellular calcium mobilization, HEK.TPβ cells; conditions: for effect of inhibitor on U46619-induced [Ca2+]i mobilization by TPβ: inhibitor pre-incubated 15 min, primary/secondary U46619 stimulation
T4 construct: expressed in transfected cells
T4 sequence (P21731 1-407 isoform P21731-2): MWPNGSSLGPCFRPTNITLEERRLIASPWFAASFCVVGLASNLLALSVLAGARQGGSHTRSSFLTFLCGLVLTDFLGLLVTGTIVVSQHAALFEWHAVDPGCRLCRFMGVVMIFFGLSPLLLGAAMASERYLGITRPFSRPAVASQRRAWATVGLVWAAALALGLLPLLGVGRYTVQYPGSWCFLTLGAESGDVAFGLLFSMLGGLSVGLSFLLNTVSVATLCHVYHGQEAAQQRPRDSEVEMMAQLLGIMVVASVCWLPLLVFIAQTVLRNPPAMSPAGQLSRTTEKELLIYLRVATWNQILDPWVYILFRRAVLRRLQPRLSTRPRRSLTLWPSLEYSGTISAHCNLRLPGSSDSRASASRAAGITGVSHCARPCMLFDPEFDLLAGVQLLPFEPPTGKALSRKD

TPβ [4] = molecular target: T4, TPβ; experiment: Intracellular calcium mobilization, HEK.TPβ cells
Experimental: as §1, §3, §2

[5] = 1 μM U46619 plus 50 nM KT 5823 pre-incubation

SMILES: Cl.Cl.O=S(=O)(NCCNCC=Cc1ccc(Br)cc1)c1cccc2cnccc12 [H-89, N-[2-((p-bromocinnamyl)amino)ethyl]-5-isoquino-linesulfonamide, 2HCL]
effect of inhibitor on [Ca2+]i mobilization in response to primary or secondary U46619 (TPα [1]; HEK.TPα, H-89 10 μM pre-incubation): no significant effect
Δ[Ca2+]i, U46619-induced (TPα [1]; HEK.TPα, primary 1 μM U46619 in presence of 10 μM H-89): 220 ± 9.2 nM
Δ[Ca2+]i, U46619-induced (TPα [1]; HEK.TPα, secondary 1 μM U46619 at 15 min in presence of 10 μM H-89): 0 nM
effect of inhibitor on [Ca2+]i mobilization in response to primary or secondary U46619 (TP^Δ328; H-89 10 μM pre-incubation): no significant effect
Δ[Ca2+]i, U46619-induced (TP^Δ328; primary 1 μM U46619 in presence of 10 μM H-89): 180 ± 10 nM
Δ[Ca2+]i, U46619-induced (TP^Δ328; secondary 1 μM U46619 at 15 min in presence of 10 μM H-89): 165 ± 8 nM

SMILES: COC(=O)[C@@]1(OC)C[C@H]2O[C@]1(C)n1c3ccccc3c3c4c(c5c6ccccc6n2c5c31)C(=O)N(C)C4 [KT 5823]
Δ[Ca2+]i, U46619-induced (TPα [1]; HEK.TPα, primary 1 μM U46619 in presence of 50 nM KT 5823): 160 ± 7.9 nM
Δ[Ca2+]i, U46619-induced (TPα [1]; HEK.TPα, secondary 1 μM U46619 at 15 min in presence of 50 nM KT 5823): 60 ± 7 nM
secondary U46619 [Ca2+]i response relative to primary response (TPα [1]; in presence of KT 5823 (50 nM)): approximately 38%
U46619-mediated TPα phosphorylation relative to basal (vehicle) (TPα [2]; [5]): 2 fold
reduction of agonist-induced TPα phosphorylation (TPα [2]; pre-incubation with KT 5823, 1 μM U46619): 2.5 fold
U46619-mediated TPα^S331A phosphorylation relative to basal (vehicle) (TPα^S331A; [5]): 1.5 fold
effect on agonist-induced phosphorylation of TPα^S331A (TPα^S331A; preincubation with KT 5823): not significantly affected
effect of inhibitor on U46619-induced [Ca2+]i mobilization by TPβ (TPβ [3]): no significant effect
Δ[Ca2+]i, U46619-induced (TPβ [3]; primary 1 μM U46619 in presence of 50 nM KT 5823): 170 ± 25 nM
Δ[Ca2+]i, U46619-induced (TPβ [3]; secondary 1 μM U46619 at 15 min in presence of 50 nM KT 5823): 0 nM

SMILES: O=C1C(Nc2ccccc2)=CC(=O)c2ncccc21 [LY 83583, 6-Anilino-5,8-quinolinequinone]
Δ[Ca2+]i, U46619-induced (TPα [1]; HEK.TPα, primary 1 μM U46619 in presence of 1 μM LY 83583): 210 ± 12 nM
Δ[Ca2+]i, U46619-induced (TPα [1]; HEK.TPα, secondary 1 μM U46619 at 15 min in presence of 1 μM LY 83583): 58 ± 6 nM
Δ[Ca2+]i, U46619-induced (TPβ [4]; primary 1 μM U46619 in presence of 1 μM LY 83583): 185 ± 26 nM
Δ[Ca2+]i, U46619-induced (TPβ [4]; secondary 1 μM U46619 at 15 min in presence of 1 μM LY 83583): 0 nM
effect of inhibitor on U46619-induced [Ca2+]i mobilization by TPβ (TPβ [3]): no significant effect

Results, then the compound that gave them:

Δ[Ca2+]i, U46619-induced (TPα [1]; HEK.TPα, primary 1 μM U46619 in presence of 50 nM GF 109203X): 250 ± 12 nM
Δ[Ca2+]i, U46619-induced (TPα [1]; HEK.TPα, secondary 1 μM U46619 at 15 min in presence of 50 nM GF 109203X): 90 ± 8 nM
secondary U46619 [Ca2+]i response relative to primary response (TPα [1]; in presence of GF 109203X (50 nM)): 36%
Δ[Ca2+]i, U46619-induced (TP^Δ328; primary 1 μM U46619 in presence of 50 nM GF 109203X): 200 ± 9.8 nM
Δ[Ca2+]i, U46619-induced (TP^Δ328; secondary 1 μM U46619 at 15 min in presence of 50 nM GF 109203X): 200 ± 12 nM
SMILES: CN(C)CCCn1cc(C2=C(c3c[nH]c4ccccc34)C(=O)NC2=O)c2ccccc21 [GF 109203X, 2-[1-(3-dimethylaminopropyl)-1H-indol-3-yl]-3-(1H-indol-3-yl)-maleimide]

Δ[Ca2+]i, U46619-induced (TPα [1]; HEK.TPα, primary 1 μM U46619 in presence of 1 μM L-NAME): 200 ± 9 nM
Δ[Ca2+]i, U46619-induced (TPα [1]; HEK.TPα, secondary 1 μM U46619 at 15 min in presence of 1 μM L-NAME): 80 ± 5.9 nM
Δ[Ca2+]i, U46619-induced (TPβ [4]; primary 1 μM U46619 in presence of 1 μM L-NAME): 220 ± 40 nM
Δ[Ca2+]i, U46619-induced (TPβ [4]; secondary 1 μM U46619 at 15 min in presence of 1 μM L-NAME): 0 nM
effect of inhibitor on U46619-induced [Ca2+]i mobilization by TPβ (TPβ [3]): no significant effect
SMILES: COC(=O)[C@@H](N)CCCNC(N)=N[N+](=O)[O-] [L-NAME, NG-Nitro-L-arginine Methyl Ester, Hydrochloride]
